From patent US20220119431A1, “SALT OF EGFR INHIBITOR, CRYSTAL FORM, AND PREPARATION METHOD THEREFOR” (priority 2019, published 2022)
Blank lines part the entries; values can stand above or below the compound they belong to.

Tests used:
[1] = Stability test, influencing factors (illumination, high temperature, high humidity); type: physicochemical
Protocol: Illumination test chamber, model: SHH-100GD-2, conditions: 5000±500 lux (visible light) and 90 mw/cm^2 (ultraviolet).
Electric heating blast drying oven, model: GZX-9140MBE condition: 60° C.
Constant temperature and humidity chamber, model: SHH-250SD, condition: 25° C./75% RH.
(§1) Influencing factor experimental conditions (high temperature of 60° C., high humidity of 75% RH, illumination): an appropriate amount of crystalline form A of the compound of formula (IIA) was placed in a dry and clean open weighing bottle, then the bottle was placed into a dryer under different conditions, and then placed into a corresponding thermostat for observation. The bottle was taken out after being placed for 5 days, 10 days and 30 days, and related substances and contents thereof were measured. Accelerated and long-term experimental conditions (40° C./75% RH, 25° C./60% RH): an appropriate amount of crystalline form A of the compound of formula (IIA) was filled into a double-layer LDPE bags, each layer of LDPE bag was sealed by a binding buckle, then put into an aluminum foil bag for heat sealing, and then put into a corresponding thermostat to observe acceleration and long-term stability.

[2] = Stability test, accelerated conditions 40° C./75% RH (Test Example 3); type: physicochemical; conditions: 40° C. ± 2° C./75% RH ± 5% RH
Protocol: (§2) Constant temperature and humidity chamber, model: LDS-800Y, condition: 40° C./75% RH and 25° C./60% RH.
as §1

[3] = Stability test, long-term conditions 25° C./60% RH (Test Example 3); type: physicochemical; conditions: 25° C. ± 2° C./60% RH ± 5% RH
Protocol: as §2, §1

[4] = Stability test, accelerated test 40° C./75% RH (Test Example 4); type: physicochemical; conditions: 40° C. ± 2° C., 75% RH ± 5% RH
Text: The conditions and the method for the raw material stability test are mainly based on related requirements such as “Guidelines for the Stability Test of APIs and Preparations” (General Principles 9001 of the Four Parts of the Chinese Pharmacopoeia, 2015 Edition) and technical guidelines for stability study on chemical drugs (raw materials and preparations) issued by the National Medical Products Administration in February, 2015 (revised), and are specifically shown in Table 14.

[5] = test system: Ba/F3 (Δ19 del/T790M/C797S); assay: In vivo efficacy in BALB/c nude mice with subcutaneous Ba/F3 (Δ19 del/T790M/C797S) xenograft (CDX); conditions: for tumor volume inhibition value (TGI): 13 consecutive days
Protocol: In vivo drug efficacy experiment was performed on xenograft (CDX) BALB/c nude mice subcutaneously implanted with Ba/F3 (Δ19 del/T790M/C797S) source. BALB/c nude mice (female, 6-8 weeks, weighing about 18-22 g) were bred in SPF-rated environments, and each cage was ventilated individually (5 mice per cage). All animals were free to obtain a standard certified commercial laboratory diet. 48 mice in total were purchased from Beijing Vital River Laboratory Animal Technology Co., Ltd for the study. Each mouse was implanted with cells subcutaneously in the right flank for tumor growth. The experiment was started when the mean tumor volume reached about 80-120 mm^3. The test compound was administered orally daily with the compound of formula (I) (5 mg/kg, 15 mg/kg, 45 mg/kg, respectively) administered for 13 consecutive days, and the data are shown in Table 5. Tumor volume was measured twice weekly with a two-dimensional caliper, and the volume was measured in mm^3 and calculated according to the following formula: V=0.5a×b^2, where a and b are the long and short diameters, respectively, of the tumor. Anti-tumor efficacy was determined by dividing the mean tumor increase volume of compound-treated animals by the mean tumor increase volume of untreated animals.

[6] = Plasma, tumor and lung exposure in the efficacy-study mice after last administration; type: in vivo, BALB/c nude mice; conditions: 15.0 mg/kg/day oral
Protocol: On day 14 after administration to the groups for the efficacy experiment, before the last administration and 2 h after the last administration, the plasma of the mice was collected by blood collection from the submandibular vein, and the plasma of the mice was collected at 1 h, 4 h, 8 h, and 24 h after the administration. About 100 μL of blood was collected each time, placed in an anticoagulation tube, and centrifuged at 8000 rpm for 7 min to collect blood plasma, and the blood plasma was preserved at −80° C. Tissues of mouse lung and tumor were collected at the same time 2 h after the administration and stored at −80° C.

[7] = test system: lung cancer PC-9 cells; assay: In vivo efficacy in mice with subcutaneous lung cancer PC-9 xenograft; parameters: species or system mouse; conditions: 50 mg/kg (0-9 days), 25 mg/kg (10-21 days) oral once a day
Protocol: 1. Cell culture: lung cancer PC-9 cells were cultured in an RPMI 1640 medium containing 10% fetal bovine serum, 100 U/mL penicillin and 100 μg/mL streptomycin through in vitro monolayer culture in an incubator at 37° C./5% CO2. The cells were digested with trypsin-EDTA twice a week for passaging as per conventional practice. At a cell saturation of 80%-90% and a required number, the cells were collected and counted. The cell density was 5×10^6 cells. 2. Cell inoculation: 0.2 mL (containing 5×10^6) of a suspension of PC-9 cells (PBS:Matrigel=1:1) was subcutaneously inoculated in the right back of each mouse, and 64 mice were inoculated in total. On day 7 after inoculation, when mean tumor volume was measured to be 169 mm^3, grouping administration was performed using a randomized stratified grouping method based on tumor volume and mice body weight. PBS is phosphate buffered saline, and Matrigel is matrigel. 3. Administration: the dosage was 50 mg/kg for 0-9 days and 25 mg/kg for 10-21 days; the drug was orally administrated once a day for 3 weeks.
Tumor diameters were measured twice weekly using a vernier caliper. The tumor volume was calculated using the following formula: V=0.5a×b^2, where a and b represent the long diameter and short diameter of the tumor respectively.
The efficacy of compounds against tumor was evaluated by TGI (%).
Relative tumor volume (RTV) was calculated based on the results of tumor measurement. The formula is RTV=Vt/V0, where V0 represents the tumor volume measured at the time point of grouping and administration (i.e., Do), and Vt represents the tumor volume at a certain measurement for the corresponding mouse, the data of TRTV and CRTV should be measured on the same day.
TGI (%) reflects the tumor growth inhibition rate. TGI (%)=[(1−(average tumor volume at the end of administration in a treatment group−average tumor volume at the start of administration of the treatment group))/(average tumor volume at the end of treatment of the solvent control group−average tumor volume at the start of treatment of the solvent control group)]×100%.
Tumor weights will be measured at the end of the experiment and the TGI (%) was calculated.

[8] = test system: L858R/T790M/C797S mutation; conditions: in combination with an EGFR monoclonal antibody drug such as Cetuximab; cited from earlier work
[9] = High humidity (25° C./75% RH), Day 5
[10] = High temperature (60° C.), Day 5
[11] = High temperature (60° C.), Day 10
[12] = High temperature (60° C.), Day 30
[13] = Light stability experiment, Day 5
[14] = Light stability experiment, Day 10
[15] = BALB/c nude, mouse, plasma, day 14

Content [1, 9]: 99.6% | Total impurities [1, 9]: 1.41% | Content [1, 10]: 99.1% | Total impurities [1, 10]: 1.59% | Content [1, 11]: 101.6% | Total impurities [1, 11]: 1.63% | Content [1, 12]: 99.4% | Total impurities [1, 12]: 1.71% | Content ([1]; Initial value): 97.3% | Total impurities ([1]; Initial value): 1.63% | Content [1, 13]: 97.1% | Total impurities [1, 13]: 1.99% | Content [1, 14]: 95.1% | Total impurities [1, 14]: 2.21% | Content ([2]; 0 day): 97.3% | Total impurities ([2]; 0 day): 1.63% | Content ([2]; 1 month): 99.1% | Total impurities ([2]; 1 month): 1.71% | Content ([2]; 2 months): 98.1% | Total impurities ([2]; 2 months): 1.50% | Content ([2]; 3 months): 98.6% | Total impurities ([2]; 3 months): 1.56% | Content ([2]; 6 months): 97.9% | Total impurities ([2]; 6 months): 1.61% | Content ([3]; 0 day): 97.3% | Total impurities ([3]; 0 day): 1.63% | Content ([3]; 3 months): 99% | Total impurities ([3]; 3 months): 1.61% | Content ([3]; 6 months): 98.2% | Total impurities ([3]; 6 months): 1.73% | Content ([3]; 9 months): 99.4% | Total impurities ([3]; 9 months): 1.83% | Content ([3]; 12 months): 97.7% | Total impurities ([3]; 12 months): 1.69% | Sum of impurities ([4]; month 0): 1.18% | Water ([4]; month 0): 3.0% | Sum of impurities ([4]; month 1): 1.10% | Water ([4]; month 1): 3.0% | Sum of impurities ([4]; month 2): 1.18% | Water ([4]; month 2): 3.5% | Sum of impurities ([4]; month 3): 1.30% | Water ([4]; month 3): 3.2% | Sum of impurities ([4]; month 6): 1.18% | Water ([4]; month 6): 2.8%
SMILES: COc1cc(N2CCC(N3CCN(C)CC3)CC2)c(C)cc1Nc1ncc(Br)c(Nc2ccc3nccnc3c2P(C)(C)=O)n1

Lung concentration, 2 h ([6]; 2 h after last administration): 32533 nmol/kg | Tumor concentration, 2 h ([6]; 2 h after last administration): 16667 nmol/kg | concentration at 2 h ([6]; BALB/c nude, mouse, plasma, 2 h after last administration): 3.55 µM | AUC(0-t) [6, 15]: 57 µM·h | half-life [6, 15]: 10 h
SMILES: COc1cc(N2CCC(N3CCN(C)CC3)CC2)c(C)cc1Nc1ncc(Br)c(Nc2ccc3nccnc3c2P(C)(C)=O)n1 [Compound of formula (I)]
Tumor volume ([5]; 5 mg/kg/day oral, Day 0): 84 mm^3 | Tumor volume ([5]; 5 mg/kg/day oral, Day 2): 108 mm^3 | Tumor volume ([5]; 5 mg/kg/day oral, Day 5): 212 mm^3 | Tumor volume ([5]; 5 mg/kg/day oral, Day 8): 395 mm^3 | Tumor volume ([5]; 5 mg/kg/day oral, Day 10): 505 mm^3 | Tumor volume ([5]; 5 mg/kg/day oral, Day 12): 748 mm^3 | Tumor volume ([5]; 5 mg/kg/day oral, Day 13): 881 mm^3 | tumor volume inhibition value (TGI) ([5]; 15 mg/kg oral daily): 74.9% | Tumor volume ([5]; 15 mg/kg/day oral, Day 0): 84 mm^3 | Tumor volume ([5]; 15 mg/kg/day oral, Day 2): 76 mm^3 | Tumor volume ([5]; 15 mg/kg/day oral, Day 5): 107 mm^3 | Tumor volume ([5]; 15 mg/kg/day oral, Day 8): 126 mm^3 | Tumor volume ([5]; 15 mg/kg/day oral, Day 10): 176 mm^3 | Tumor volume ([5]; 15 mg/kg/day oral, Day 12): 292 mm^3 | Tumor volume ([5]; 15 mg/kg/day oral, Day 13): 326 mm^3 | tumor volume inhibition value (TGI) ([5]; 45 mg/kg oral daily): 101.69% | Tumor volume ([5]; 45 mg/kg/day oral, Day 0): 84 mm^3 | Tumor volume ([5]; 45 mg/kg/day oral, Day 2): 56 mm^3 | Tumor volume ([5]; 45 mg/kg/day oral, Day 5): 32 mm^3 | Tumor volume ([5]; 45 mg/kg/day oral, Day 8): 35 mm^3 | Tumor volume ([5]; 45 mg/kg/day oral, Day 10): 42 mm^3 | Tumor volume ([5]; 45 mg/kg/day oral, Day 12): 73 mm^3 | Tumor volume ([5]; 45 mg/kg/day oral, Day 13): 68 mm^3 | Tumor volume ([7]; Day 0): 185 mm^3 | Tumor volume ([7]; Day 2): 198 mm^3 | Tumor volume ([7]; Day 6): 92 mm^3 | Tumor volume ([7]; Day 9): 75 mm^3 | Tumor volume ([7]; Day 13): 40 mm^3 | Tumor volume ([7]; Day 16): 45 mm^3 | Tumor volume ([7]; Day 20): 76 mm^3 | Tumor volume ([7]; Day 23): 111 mm^3 | TGI ([7]; day 23): 100%

SMILES: O=C(Nc1nccs1)C(c1cc(F)ccc1O)N1Cc2ccccc2C1=O (stereo not shown) [EAI045]
tumor inhibitory effect [8]: good tumor inhibitory effect
